From patent US20140234359A1, “PLANT VIRAL VACCINES AND THERAPEUTICS” (priority 2011, published 2014) come the findings set out here.

For this assay, the system named is T-24 human bladder cancer cells. Description: Cell death of T-24 cells after anti-viral treatment, flow cytometry. Type of assay: cell-based. Conditions: 10 μM efavirenz, 48 hours, vs methanol control. Here is the method: T-24 human bladder cells were grown in a 12 well plate in a total volume of 2 mL of 10% FBS complete RPMI. Cells were left untreated or treated with 2 μL of methanol (Sigma-Aldrich) or treated with 10 μM efavirenz (Toronto Research Chemicals Cat# E425000). Cells were grown in CO2 incubator at 37° C. for 48 hours. After 48 hours, cells were harvested and counted using trypan blue on a hemocytometer.
The human bladder cancer T24 cell line was used to determine the effects of and anti-viral treatment on human tumor cells infected with plant virus. The T24 cells were grown in culture and then treated or not with the anti-reverse transcriptase drug, efavirenz, for twenty four or forty eight hours. Cell death assays were performed in triplicate. […] It is expected that treatment of the bladder cancer cells with a TLR activator to activate new virus replication in combination with the anti-viral drug will be useful in increasing cell death further. FIG. 2a depicts flow cytometer results on T-24 Human bladder cancer cells treated with efavirenz or methanol control for 48 hours. FIG. 2b is a bar graph depiction of the data.

Turning to `O=C1Nc2ccc(Cl)cc2[C@@](C#CC2CC2)(C(F)(F)F)O1` [efavirenz], the cell death result is on record as “increased death”. Moreover, for the setting “listed as Efavirenz”, the cell death entry is “effective in killing a percentage of the cells”.
